These results are taken from paper PMC6071225 (Viruses, 2018).

In assay [1] the test system is catalytic domain of wild-type NA2009. The assay is classed as binding. To be noted: wt.
The test system of the next assay is wt NA2009. The assay is classed as biochemical.
Where [2] appears, read: 50 mM MES (or ACES), pH 6.15, 25 °C.
[3] abbreviates: 50 mM MES (or ACES), pH 6.15, 25 °C, listed as Oseltamivir.

Like-named read-outs stand apart in the source and are kept apart here.

The term Kd denotes the free concentration of one partner at which half of the binding sites on the other are occupied at equilibrium, for simple one-to-one binding. Lower therefore signals tighter binding. What is called Ki is the dissociation constant of the complex between target and ligand, obtained from inhibition or displacement. Turning to `CCC(CC)O[C@@H]1C=C(C(=O)O)C[C@H](N)[C@H]1NC(C)=O` [oseltamivir carboxylate], the “Fold Kd” value in assay [1] (compared with that of wt NA2009) amounted to 1 fold. Further, in assay [1] (setting [2]), the Kd was determined as 140 ± 20 nM, the ΔG was -9.4 ± 0.1 kcal/mol, the ΔH is -10.8 ± 0.1 kcal/mol and the “−T·ΔS” value was 1.5 ± 0.2 kcal/mol. Also, in assay [1] (setting [3]), the ΔG is -9.4 kcal/mol, the ΔH was -10.8 kcal/mol and the “−T·ΔS” value amounted to 1.5 kcal/mol. In addition, the “Fold Ki” value in the assay with wt NA2009 (wt NA2009, compared with that of wt NA2009) was found to be 1 fold. For the same molecule, the Ki on wt NA2009 (wt NA2009, mean ± s.d., two independent experiments, 37 °C) amounted to 24 ± 4 nM.
